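All cell lines were grown in 96-well plates and treated with compound for 48 hours. TGI: concentration producing complete growth inhibition.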
What was measured:
Assay in all cases: NCI-60 cell line screen, 48 h
OVCAR-8 ovarian = test system: OVCAR-8 ovarian
M19-MEL melanoma = test system: M19-MEL melanoma
SK-OV-3 ovarian = test system: SK-OV-3 ovarian
HCC-2998 colon = test system: HCC-2998 colon
M14 melanoma = test system: M14 melanoma
SW-620 colon = test system: SW-620 colon
K-562 leukemia = test system: K-562 leukemia
HOP-92 NSCLC = test system: HOP-92 NSCLC
OVCAR-4 ovarian = test system: OVCAR-4 ovarian
HOP-62 NSCLC = test system: HOP-62 NSCLC
SF-268 CNS = test system: SF-268 CNS
XF 498 CNS = test system: XF 498 CNS
MALME-3M melanoma = test system: MALME-3M melanoma
CCRF-CEM leukemia = test system: CCRF-CEM leukemia
UACC-257 melanoma = test system: UACC-257 melanoma
HL-60(TB) leukemia = test system: HL-60(TB) leukemia
HCT-116 colon = test system: HCT-116 colon
SK-MEL-5 melanoma = test system: SK-MEL-5 melanoma
OVCAR-3 ovarian = test system: OVCAR-3 ovarian
A498 renal = test system: A498 renal
SF-295 CNS = test system: SF-295 CNS
NCI-H23 lung = test system: NCI-H23 lung
SR leukemia = test system: SR leukemia
DMS 114 small cell lung = test system: DMS 114 small cell lung
NCI-H522 lung = test system: NCI-H522 lung
RXF-631 renal = test system: RXF-631 renal
RPMI-8226 leukemia = test system: RPMI-8226 leukemia
LXFL 529 NSCLC = test system: LXFL 529 NSCLC
SN12C renal = test system: SN12C renal
SF-539 CNS = test system: SF-539 CNS
786-0 renal = test system: 786-0 renal
NCI-H226 lung = test system: NCI-H226 lung
SNB-78 CNS = test system: SNB-78 CNS
SK-MEL-28 melanoma = test system: SK-MEL-28 melanoma
SNB-19 CNS = test system: SNB-19 CNS
SNB-75 CNS = test system: SNB-75 CNS
HT29 colon = test system: HT29 colon
TK-10 renal = test system: TK-10 renal
CAKI-1 renal = test system: CAKI-1 renal
KM12 colon = test system: KM12 colon
MOLT-4 leukemia = test system: MOLT-4 leukemia
DMS 273 small cell lung = test system: DMS 273 small cell lung
UACC-62 melanoma = test system: UACC-62 melanoma
DLD-1 colon = test system: DLD-1 colon
EKVX NSCLC = test system: EKVX NSCLC
A549 NSCLC = test system: A549 NSCLC
SK-MEL-2 melanoma = test system: SK-MEL-2 melanoma
UO-31 renal = test system: UO-31 renal
COLO 205 colon = test system: COLO 205 colon
ACHN renal = test system: ACHN renal
LOX IMVI melanoma = test system: LOX IMVI melanoma
OVCAR-5 ovarian = test system: OVCAR-5 ovarian
HCT-15 colon = test system: HCT-15 colon
U251 CNS = test system: U251 CNS
KM20L2 colon = test system: KM20L2 colon
RXF 393 renal = test system: RXF 393 renal
IGROV1 ovarian = test system: IGROV1 ovarian
NCI-H460 lung = test system: NCI-H460 lung

`CCN(CC)CCCCC1CCN(CC(=O)N2c3ccccc3NC(=O)c3ccccc32)CC1` was tested, and the TGI (OVCAR-8 ovarian) was > 100 µM, the TGI (M19-MEL melanoma) was > 100 µM and the TGI (SK-OV-3 ovarian) was > 100 µM. For the same compound, the TGI (HCC-2998 colon) was > 100 µM, the TGI (M14 melanoma) was 39.7 µM and the TGI (SW-620 colon) was > 100 µM. For the same compound, the TGI (K-562 leukemia) was > 100 µM, the TGI (HOP-92 NSCLC) was > 100 µM and the TGI (OVCAR-4 ovarian) was > 100 µM. The TGI (HOP-62 NSCLC) was > 100 µM, the TGI (SF-268 CNS) was > 100 µM and the TGI (XF 498 CNS) was > 100 µM. For the same compound, the TGI (MALME-3M melanoma) was > 100 µM, the TGI (CCRF-CEM leukemia) was > 100 µM and the TGI (UACC-257 melanoma) was > 100 µM. The TGI (HL-60(TB) leukemia) was > 100 µM, the TGI (HCT-116 colon) was > 100 µM and the TGI (SK-MEL-5 melanoma) was > 100 µM. For the same compound, the TGI (OVCAR-3 ovarian) was > 100 µM, the TGI (A498 renal) was > 100 µM and the TGI (SF-295 CNS) was > 100 µM. For the same compound, the TGI (NCI-H23 lung) was > 100 µM, the TGI (SR leukemia) was > 100 µM and the TGI (DMS 114 small cell lung) was > 100 µM. The TGI (NCI-H522 lung) was > 100 µM, the TGI (RXF-631 renal) was > 100 µM and the TGI (RPMI-8226 leukemia) was > 100 µM. For the same compound, the TGI (LXFL 529 NSCLC) was > 100 µM, the TGI (SN12C renal) was > 100 µM and the TGI (SF-539 CNS) was > 100 µM. The TGI (786-0 renal) was > 100 µM, the TGI (NCI-H226 lung) was > 100 µM and the TGI (SNB-78 CNS) was > 100 µM. The TGI (SK-MEL-28 melanoma) was > 100 µM, the TGI (SNB-19 CNS) was > 100 µM and the TGI (SNB-75 CNS) was > 100 µM. For the same compound, the TGI (HT29 colon) was > 100 µM, the TGI (TK-10 renal) was > 100 µM and the TGI (CAKI-1 renal) was > 100 µM. For the same compound, the TGI (KM12 colon) was > 100 µM, the TGI (MOLT-4 leukemia) was > 100 µM and the TGI (DMS 273 small cell lung) was > 100 µM. The TGI (UACC-62 melanoma) was > 100 µM, the TGI (DLD-1 colon) was > 100 µM and the TGI (EKVX NSCLC) was > 100 µM. For the same compound, the TGI (A549 NSCLC) was > 100 µM, the TGI (SK-MEL-2 melanoma) was > 100 µM and the TGI (UO-31 renal) was > 100 µM. For the same compound, the TGI (COLO 205 colon) was > 100 µM.

In the case of `CCCCCCCCCCCCCCCC(=O)NC1CCc2cc(O)c(O)c(O)c2-c2ccc(SC)c(=O)cc21` (stereo not given), the TGI (ACHN renal) is reported as 22.4 µM, the TGI (OVCAR-8 ovarian) is reported as 28.8 µM and the TGI (SK-OV-3 ovarian) is reported as 29.5 µM. For the same compound, the TGI (HCC-2998 colon) was 20.9 µM, the TGI (M14 melanoma) was 25 µM and the TGI (SW-620 colon) was 19 µM. The TGI (LOX IMVI melanoma) was 24.8 µM, the TGI (K-562 leukemia) was > 40.7 µM and the TGI (HOP-92 NSCLC) was 8.28 µM. For the same compound, the TGI (OVCAR-5 ovarian) was 26.8 µM, the TGI (OVCAR-4 ovarian) was 28.9 µM and the TGI (HOP-62 NSCLC) was 25.4 µM. It also gave a TGI (SF-268 CNS) of 23 µM, a TGI (HCT-15 colon) of 15.5 µM and a TGI (XF 498 CNS) of 29.6 µM. It also gave a TGI (MALME-3M melanoma) of 28.5 µM, a TGI (CCRF-CEM leukemia) of 46.2 µM and a TGI (UACC-257 melanoma) of 26.7 µM. The TGI (HL-60(TB) leukemia) was > 36.7 µM, the TGI (HCT-116 colon) was 17.2 µM and the TGI (SK-MEL-5 melanoma) was 16 µM. It also gave a TGI (OVCAR-3 ovarian) of 16.8 µM, a TGI (A498 renal) of 39.5 µM and a TGI (SF-295 CNS) of 13.7 µM. The TGI (NCI-H23 lung) was 16.6 µM, the TGI (SR leukemia) was > 31 µM and the TGI (DMS 114 small cell lung) was 6.37 µM. The TGI (NCI-H522 lung) was 14.6 µM, the TGI (RXF-631 renal) was 28.1 µM and the TGI (RPMI-8226 leukemia) was > 100 µM. For the same compound, the TGI (LXFL 529 NSCLC) was 8.04 µM, the TGI (SN12C renal) was 35.8 µM and the TGI (SF-539 CNS) was 9.2 µM. For the same compound, the TGI (U251 CNS) was 12.6 µM, the TGI (786-0 renal) was 33.3 µM and the TGI (NCI-H226 lung) was 27.4 µM. It also gave a TGI (SNB-78 CNS) of 28.2 µM, a TGI (SK-MEL-28 melanoma) of 20.9 µM and a TGI (SNB-19 CNS) of 23.4 µM. The TGI (KM20L2 colon) was 32.7 µM, the TGI (SNB-75 CNS) was 9.13 µM and the TGI (HT29 colon) was 27.8 µM. It also gave a TGI (TK-10 renal) of 30.2 µM, a TGI (CAKI-1 renal) of 27.2 µM and a TGI (KM12 colon) of 20.3 µM. The TGI (RXF 393 renal) was 7.66 µM, the TGI (MOLT-4 leukemia) was > 71.8 µM and the TGI (DMS 273 small cell lung) was 16.4 µM. The TGI (IGROV1 ovarian) was 25.3 µM, the TGI (UACC-62 melanoma) was 10.9 µM and the TGI (DLD-1 colon) was 22.4 µM. The TGI (EKVX NSCLC) was 39.7 µM, the TGI (A549 NSCLC) was 15.5 µM and the TGI (UO-31 renal) was 22.6 µM. The TGI (NCI-H460 lung) was 19.6 µM and the TGI (COLO 205 colon) was 16.9 µM.
